Where two headings read alike, the source gives them in different places. Where only a bound is given, the exact number is not on record here.

The test system of one assay is Mino cells. Description: Antiproliferative effect, MTS cell viability assay, Mino cells. Particulars: Mino mantle cell lymphoma cells, read-out: IC50 (anti-proliferation) Mino cells. It counts as cell-based. The gist of the method: (§1)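 Readout was MTS-derived formazan absorbance (490 nm) reflecting metabolically active cells. Treatment lasted 72 h over a 0–10 μM range (0.001, 0.01, 0.1, 1, 10 μM) in JeKo-1 and Mino B-cell malignancy cells.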

The next assay concerns JeKo-1 cells. The assay can be described thus: Antiproliferative effect, MTS cell viability assay, JeKo-1 cells. It is filed as cell-based. Particulars: JeKo-1 mantle cell lymphoma cells, read-out: IC50 (anti-proliferation) JeKO-1 cells. The gist of the method: as §1
For assay [1], the target named is T1, BTK (Homo sapiens, UniProt Q06187). Description: BTK degradation, DC50 and Dmax of Table 1 (cell line not given). It counts as cell-based. Details: endogenous in cells. To be noted: for DC50: concentration giving 50% reduction of BTK expression level.
T1 sequence (Q06187 whole entry): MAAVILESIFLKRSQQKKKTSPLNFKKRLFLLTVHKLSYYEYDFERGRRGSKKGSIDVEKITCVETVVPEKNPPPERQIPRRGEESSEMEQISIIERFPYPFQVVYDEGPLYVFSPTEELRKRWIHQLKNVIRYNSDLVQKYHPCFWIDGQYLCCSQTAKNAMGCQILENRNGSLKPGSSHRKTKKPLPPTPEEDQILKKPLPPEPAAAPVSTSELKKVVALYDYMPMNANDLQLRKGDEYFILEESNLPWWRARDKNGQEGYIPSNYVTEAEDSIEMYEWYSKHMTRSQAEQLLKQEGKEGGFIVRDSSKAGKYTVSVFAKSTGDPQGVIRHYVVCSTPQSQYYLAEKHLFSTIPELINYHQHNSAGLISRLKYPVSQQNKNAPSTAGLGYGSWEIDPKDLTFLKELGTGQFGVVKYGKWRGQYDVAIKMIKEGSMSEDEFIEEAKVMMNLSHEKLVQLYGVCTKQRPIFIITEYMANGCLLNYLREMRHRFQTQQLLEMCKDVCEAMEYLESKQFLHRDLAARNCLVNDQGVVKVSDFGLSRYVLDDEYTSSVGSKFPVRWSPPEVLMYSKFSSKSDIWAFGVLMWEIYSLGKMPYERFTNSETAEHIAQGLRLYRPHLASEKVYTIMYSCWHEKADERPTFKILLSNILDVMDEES
In assay [2] the target is T1, BTK. The assay can be described thus: Degradation of BTK protein in Namalwa cells (Western blot; DC50, Dmax). Particulars: Namalwa B lymphocyte cells, Western blot.

Regarding `Nc1ncnc2c1c(-c1ccc(Oc3ccccc3)cc1)nn2[C@@H]1CCCN(C(=O)N2CCN(c3ccc4c(c3)C(=O)N(C3CCC(=O)NC3=O)C4=O)CC2)C1` (stereo partly drawn) [Compound 45, 5-(4-((R)-3-(4-amino-3-(4-phenoxyphenyl)-1H-pyrazolo[3,4-d]pyrimidin-1-yl)piperidine-1-carbonyl)piperazin-1-yl)-2-(2,6-dioxopiperidin-3-yl)isoindoline-1,3-dione], the IC50 in the assay on Mino cells (Homo sapiens, MINO) is greater than 10000 nM. Besides, in the assay with JeKo-1 cells (Homo sapiens), the IC50 was greater than 10000 nM. In addition, at BTK [1], the Dmax is greater than 50% and the DC50 is greater than 50 nM. Also, the “degradation of BTK protein at 10^−6 M” value at BTK [2] is recorded as “degradation”.

As for `Nc1ncnc2c1c(-c1ccc(Oc3ccccc3)cc1)nn2[C@@H]1CCCN(C(=O)N2CCC(CCN3CCN(c4ccc5c(c4)C(=O)N(C4CCC(=O)NC4=O)C5=O)CC3)CC2)C1` (stereo partly drawn) [Compound 63, 5-(4-(2-(1-((R)-3-(4-amino-3-(4-phenoxyphenyl)-1H-pyrazolo(3,4-d)pyrimidin-1-yl)piperidine-1-carbonyl)piperidin-4-yl)ethyl)piperazin-1-yl)-2-(2,6-dioxopiperidin-3-yl)isoindoline-1,3-dione], the IC50 in the assay with Mino cells (Homo sapiens, MINO) fell in the range of 1000 to 10000 nM. Moreover, the IC50 in the assay with JeKo-1 cells (Homo sapiens) lay in the range of 1000 to 10000 nM. Moreover, at BTK [1], the Dmax is greater than 90% and the DC50 was less than 10 nM. Also, at BTK [2], the “degradation of BTK protein at 10^−6 M” value is “degradation”. The “degradation of BTK protein” value on BTK [2] (various concentrations, 24 hours) is “dose-dependent degradation”.

On to `Nc1ncnc2c1c(-c1ccc(Oc3ccccc3)cc1)nn2C1CCN(C(=O)N2CCN(c3ccc4c(c3)C(=O)N(C3CCC(=O)NC3=O)C4=O)CC2)CC1` (stereo not shown) [Compound 75, 5-(4-(4-(4-amino-3-(4-phenoxyphenyl)-1H-pyrazolo(3,4-d)pyrimidin-1-yl)piperidine-1-carbonyl)piperazin-1-yl)-2-(2,6-dioxopiperidin-3-yl)isoindoline-1,3-dione], for which the IC50 in the assay on Mino cells (Homo sapiens, MINO) was greater than 10000 nM; in the assay with JeKo-1 cells (Homo sapiens), greater than 10000 nM. Besides, the Dmax on BTK [1] is greater than 50%. For the same compound, the DC50 on BTK [1] is greater than 50 nM. The “degradation of BTK protein at 10^−6 M” value on BTK [2] is listed as “degradation”.

As for `Nc1ncnc2c1c(-c1ccc(Oc3ccccc3)cc1)nn2C1CCCN(CCOCCN2CCN(c3ccc4c(c3)CN(C3CCC(=O)NC3=O)C4=O)CC2)C1` (stereo not shown) [Compound 8, 3-(5-(4-(2-(2-(3-(4-amino-3-(4-phenoxyphenyl)-1H-pyrazolo[3,4-d]pyrimidin-1-yl)piperidin-1-yl)ethoxy)ethyl)piperazin-1-yl)-1-oxoisoindolin-2-yl)piperidine-2,6-dione], the IC50 in the assay with Mino cells (Homo sapiens, MINO) fell in the range of 1000 to 10000 nM. Further, in the assay with JeKo-1 cells (Homo sapiens), the IC50 was in the range of 1000 to 10000 nM. Moreover, on BTK [1], the Dmax is greater than 90% and the DC50 lay in the range of 10 to 50 nM.

Consider `Nc1ncnc2c1c(-c1ccc(Oc3ccccc3)cc1)nn2C1CCCN(CCOCCOCCN2CCN(c3ccc4c(c3)CN(C3CCC(=O)NC3=O)C4=O)CC2)C1` (stereo not shown) [Compound 4, 3-(5-(4-(2-(2-(2-(3-(4-amino-3-(4-phenoxyphenyl)-1H-pyrazolo[3,4-d]pyrimidin-1-yl)piperidin-1-yl)ethoxy)ethoxy)ethyl)piperazin-1-yl)-1-oxoisoindolin-2-yl)piperidine-2,6-dione], for which the IC50 in the assay on Mino cells (Homo sapiens, MINO) is 1000 to 10000 nM. In addition, in the assay on JeKo-1 cells (Homo sapiens), the IC50 fell in the range of 1000 to 10000 nM. In addition, on BTK [1], the Dmax was greater than 90% and the DC50 was less than 10 nM.

Take `Nc1ncnc2c1c(-c1ccc(Oc3ccccc3)cc1)nn2C1CCN(C(=O)N2CCC(CCC3CCN(c4ccc5c(c4)C(=O)N(C4CCC(=O)NC4=O)C5=O)CC3)CC2)CC1` (stereo not shown) [Compound 101, 5-(4-(2-(1-(4-(4-amino-3-(4-phenoxyphenyl)-1H-pyrazolo[3,4-d]pyrimidin-1-yl)piperidine-1-carbonyl)piperidin-4-yl)ethyl)piperidin-1-yl)-2-(2,6-dioxopiperidin-3-yl)isoindoline-1,3-dione]: the IC50 in the assay with Mino cells (Homo sapiens, MINO) is greater than 10000 nM; in the assay with JeKo-1 cells (Homo sapiens), greater than 10000 nM. This compound also returned a Dmax at BTK [1] greater than 90%. This compound also displayed a DC50 at BTK [1] of 10 to 50 nM.

Regarding `Nc1ncnc2c1c(-c1ccc(Oc3ccccc3)cc1)nn2C1CCN(C(=O)N2CCC(CCCN3CCC(c4ccc5c(c4)C(=O)N(C4CCC(=O)NC4=O)C5=O)CC3)CC2)CC1` (stereo not shown) [Compound 127, 5-(1-(3-(1-(4-(4-amino-3-(4-phenoxyphenyl)-1H-pyrazolo[3,4-d]pyrimidin-1-yl)piperidine-1-carbonyl)piperidin-4-yl)propyl)piperidin-4-yl)-2-(2,6-dioxopiperidin-3-yl)isoindoline-1,3-dione], the IC50 in the assay with Mino cells (Homo sapiens, MINO) fell in the range of 1000 to 10000 nM. Further, in the assay with JeKo-1 cells (Homo sapiens), the IC50 was greater than 10000 nM. Moreover, at BTK [1], the Dmax was greater than 90% and the DC50 was greater than 50 nM.

As for `Nc1ncnc2c1c(-c1ccc(Oc3ccccc3)cc1)nn2C1CCN(C(=O)N2CCC(CN3CCC(c4ccc5c(c4)C(=O)N(C4CCC(=O)NC4=O)C5=O)CC3)CC2)CC1` (stereo not shown) [Compound 91, 5-(1-((1-(4-(4-amino-3-(4-phenoxyphenyl)-1H-pyrazolo[3,4-d]pyrimidin-1-yl)piperidine-1-carbonyl)piperidin-4-yl)methyl)piperidin-4-yl)-2-(2,6-dioxopiperidin-3-yl)isoindoline-1,3-dione], in the assay with Mino cells (Homo sapiens, MINO), the IC50 is 1000 to 10000 nM. For the same compound, the IC50 with JeKo-1 cells (Homo sapiens) was 1000 to 10000 nM. On BTK [1], the Dmax was greater than 90% and the DC50 was less than 10 nM.

In the case of `Nc1ncnc2c1c(-c1ccc(Oc3ccccc3)cc1)nn2[C@@H]1CCCN(C2CCN(C(=O)N3CCC(CN4CCC(c5ccc6c(c5)CN(C5CCC(=O)NC5=O)C6=O)CC4)CC3)CC2)C1` (stereo partly drawn) [Compound 174, 3-(5-(1-((1-((R)-3-(4-amino-3-(4-phenoxyphenyl)-1H-pyrazolo[3,4-d]pyrimidin-1-yl)-[1,4′-bipiperidine]-1′-carbonyl)piperidin-4-yl)methyl)piperidin-4-yl)-1-oxoisoindolin-2-yl)piperidine-2,6-dione], the IC50 in the assay on Mino cells (Homo sapiens, MINO) was 1000 to 10000 nM. In addition, the IC50 with JeKo-1 cells (Homo sapiens) was 1000 to 10000 nM. On BTK [1], this compound displayed a Dmax greater than 90% and a DC50 of 10 to 50 nM.

Take `Nc1ncnc2c1c(-c1ccc(Oc3ccccc3)cc1)nn2[C@@H]1CCCN(C(=O)N2CCN(CC3CCN(c4ccc5c(c4)C(=O)N(C4CCC(=O)NC4=O)C5=O)CC3)CC2)C1` (stereo partly drawn) [Compound 57, 5-(4-((4-((R)-3-(4-amino-3-(4-phenoxyphenyl)-1H-pyrazolo[3,4-d]pyrimidin-1-yl)piperidine-1-carbonyl)piperazin-1-yl)methyl)piperidin-1-yl)-2-(2,6-dioxopiperidin-3-yl)isoindoline-1,3-dione]: the IC50 in the assay on Mino cells (Homo sapiens, MINO) lay within 1000 to 10000 nM; in the assay with JeKo-1 cells (Homo sapiens) it was 1000 to 10000 nM. The compound further had a Dmax on BTK [1] greater than 90%. For the same compound, the DC50 on BTK [1] was 10 to 50 nM.

For `Nc1ncnc2c1c(-c1ccc(Oc3ccccc3)cc1)nn2C1CCN(CC2CCN(C(=O)N3CCC(CCN4CCN(c5ccc6c(c5)CN(C5CCC(=O)NC5=O)C6=O)CC4)CC3)CC2)CC1` (stereo not shown) [Compound 44, 3-(5-(4-(2-(1-(4-((4-(4-amino-3-(4-phenoxyphenyl)-1H-pyrazolo[3,4-d]pyrimidin-1-yl)piperidin-1-yl)methyl)piperidine-1-carbonyl)piperidin-4-yl)ethyl)piperazin-1-yl)-1-oxoisoindolin-2-yl)piperidine-2,6-dione], the IC50 in the assay on Mino cells (Homo sapiens, MINO) fell in the range of 1000 to 10000 nM. Besides, in the assay on JeKo-1 cells (Homo sapiens), the IC50 lay in the range of 1000 to 10000 nM. On BTK [1], this compound showed a Dmax greater than 90% and a DC50 of 10 to 50 nM.

On to `Nc1ncnc2c1c(-c1ccc(Oc3ccccc3)cc1)nn2[C@@H]1CCCN(CC2CCN(CCN3CCC(c4ccc5c(c4)CN(C4CCC(=O)NC4=O)C5=O)CC3)CC2)C1` (stereo partly drawn) [Compound 136, 3-(5-(1-(2-(4-(((R)-3-(4-amino-3-(4-phenoxyphenyl)-1H-pyrazolo[3,4-d]pyrimidin-1-yl)piperidin-1-yl)methyl)piperidin-1-yl)ethyl)piperidin-4-yl)-1-oxoisoindolin-2-yl)piperidine-2,6-dione], for which the IC50 with Mino cells (Homo sapiens, MINO) is less than 1000 nM; with JeKo-1 cells (Homo sapiens) it was 1000 to 10000 nM. The Dmax at BTK [1] is greater than 75%. Moreover, the DC50 on BTK [1] was less than 10 nM.

On to `Nc1ncnc2c1c(-c1ccc(Oc3ccccc3)cc1)nn2[C@@H]1CCCN(CC2CCN(CCCN3CCC(c4ccc5c(c4)CN(C4CCC(=O)NC4=O)C5=O)CC3)CC2)C1` (stereo partly drawn) [Compound 140, 3-(5-(1-(3-(4-(((R)-3-(4-amino-3-(4-phenoxyphenyl)-1H-pyrazolo[3,4-d]pyrimidin-1-yl)piperidin-1-yl)methyl)piperidin-1-yl)propyl)piperidin-4-yl)-1-oxoisoindolin-2-yl)piperidine-2,6-dione], for which the IC50 in the assay on Mino cells (Homo sapiens, MINO) is 1000 to 10000 nM; in the assay with JeKo-1 cells (Homo sapiens), greater than 10000 nM. Further, the maximal degradation (Dmax) at BTK [1] was greater than 75%. The compound further gave a DC50 on BTK [1] of 10 to 50 nM.

Turning to “3-(5-(4-(2-(2-(3-(4-amino-3-(4- phenoxyphenyl)-1H-pyrazolo[3,4- d]pyrimidin-1-yl)piperidin-1- yl)ethoxy)ethyl)piperidin-1-yl)-1- oxoisindolin-2-yl)piperidine-2,6- dione [Compound 24]”, the IC50 in the assay with Mino cells was in the range of 1000 to 10000 nM. The IC50 in the assay with JeKo-1 cells lay within 1000 to 10000 nM. On BTK [1], the “Dmax (BTK degradation)” value is “A (A >90%)” and the DC50 fell in the range of 10 to 50 nM.

`Nc1ncnc2c1c(-c1ccc(Oc3ccccc3)cc1)nn2C1CCN(C(=O)N2CCN(CCCN3CCC(c4ccc5c(c4)C(=O)N(C4CCC(=O)NC4=O)C5=O)CC3)CC2)CC1` (stereo not shown) [Compound 123, 5-(1-(3-(4-(4-(4-amino-3-(4-phenoxyphenyl)-1H-pyrazolo[3,4-d]pyrimidin-1-yl)piperidine-1-carbonyl)piperazin-1-yl)propyl)piperidin-4-yl)-2-(2,6-dioxopiperidin-3-yl)isoindoline-1,3-dione]: the IC50 in the assay with Mino cells (Homo sapiens, MINO) lay in the range of 1000 to 10000 nM; in the assay with JeKo-1 cells (Homo sapiens), 1000 to 10000 nM. Besides, on BTK [1], the Dmax was greater than 75%. Also, the DC50 on BTK [1] is greater than 50 nM.

The values above are taken from patent US12139492B2 (Endotarget Inc., priority 2021, dated 2024).
